Test results reported in patent publication US7189754B2, “Pyrrolidine ester derivatives with oxytocin modulating activity” (Applied Research Systems ARS Holding NV, priority 2001, dated 2007).

Key:
[1] = molecular target: T1, human Oxytocin (hOT) receptor (Homo sapiens, UniProt P30559); experiment: In vitro competition binding assay on hOT receptor with scintillation proximity assay ([125I]-OVTA); settings: HEK293EBNA membranes expressing hOT receptor, 0.2 nM [125I]-OVTA, SPA; read-out: Binding affinity human OT-R IC50
T1 construct: expressed in transfected cells; host or cells: HEK293EBNA
T1 sequence (P30559 1-389): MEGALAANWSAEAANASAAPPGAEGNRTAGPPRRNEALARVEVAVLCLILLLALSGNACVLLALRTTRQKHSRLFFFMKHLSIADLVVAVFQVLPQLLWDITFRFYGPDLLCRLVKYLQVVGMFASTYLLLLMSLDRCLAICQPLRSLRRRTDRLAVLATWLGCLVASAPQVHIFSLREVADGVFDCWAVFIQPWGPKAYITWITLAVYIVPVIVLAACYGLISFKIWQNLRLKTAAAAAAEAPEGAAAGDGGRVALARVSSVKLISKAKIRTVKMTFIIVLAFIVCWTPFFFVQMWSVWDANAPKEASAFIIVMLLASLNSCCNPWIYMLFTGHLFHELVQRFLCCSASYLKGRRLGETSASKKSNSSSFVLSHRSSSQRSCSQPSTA
Description: a) In Vitro Competition Binding Assay on hOT Receptor with Scintillation Proximity Assay (see Cook, N. D. et al. Pharmaceutical Manufacturing International 1992; p.49–53)
This assay allows to determine the affinity of the test compounds for the human Oxytocin (hOT) receptor. Membranes from HEK293EBNA (cells expressing the hOT receptor) were suspended in buffer containing 50 mM Tris-HCl, pH 7.4, 5 mM MgCl2 and 0.1% BSA (w/v). The membranes (2–4 μg) were mixed with 0.1 mg SPA bead coated with wheat-germ aglutinin (WGA-PVT-Polyethylene Imine beads from Amersham) and 0.2 nM of the radiolabelled [^125I]-OVTA (OVTA being Ornithin Vasoactive, an analogue of OT for competitive binding experiments). Non-specific binding was determined in the presence of 1 μM Oxytocin. The total assay volume was 100 μl. The plates (Corning® NBS plate) were incubated at room temperature for 30 min and counted on a Mibrobeta® plate scintillation counter. Competitive binding was performed in presence of compounds of formula (I) at the following concentrations: 30 μM, 10 μM, 1 μM, 300 nM, 100 nM, 10 nM, 1 nM, 100 pM, 10 pM. The competitive binding data were analysed using the iterative, nonlinear, curve-fitting program, “Prism” (GraphPad Software, Inc).
The ability of the pyrrolidine derivatives of formula (I) to inhibit the binding of ^125I-OVTA to the OT-receptor was assessed using the above described in vitro biological assay. Representative values for some example compounds are given in Table 1, where the binding affinity of the compounds is expressed by the IC50 (μM) which is the concentration upon which 50% inhibition of OT-R is achieved. From these values, it can be derived that said test compounds according to formula (I) do show a significant binding to the oxytocin receptor.

hOT receptor = molecular target: T2, hOT receptor (Homo sapiens, UniProt P30559); experiment: Functional assay No. 1: inhibition of oxytocin mediated Ca2+-mobilization by FLIPR in HEK293EBNA cells; type: cell-based; settings: HEK293EBNA cells expressing hOT receptor, OT 40 nM, fluo-4, FLIPR; read-out: Inhibition of Ca2+ mobiliation, hOT-R IC50
T2 construct: expressed in transfected cells; host or cells: HEK293EBNA
T2 sequence (P30559 1-389): T1 sequence (P30559 1-389)
Source text: b) Functional Assay No. 1: Inhibition of Oxytocin Mediated Ca^2+-mobilization by FLIPR® (Fluorimetric Imaging Plate Reader)
The action of OT on the OT-receptor triggers a complex cascade of events in the cell which leads to an increase in the intra-cytoplasmic Ca^2+ concentration. This increase in Ca^2+ concentration results from both calcium release from the sarcoplasmic reticulum (calcium stores) into the cytoplasm and from calcium influx from the extracellular space through Ca^2+ channels. […]
FLIPR® is a fluorimetric imaging device using a laser (Argon-ion laser) for simultaneous illumination and reading (cooled CCD camera) of each well of a 96-well-plate, thus enabling rapid measurements on a large number of samples. […]
The relative fluorescence of Fluo-4 (λex=488 nm, […]) is then measured by the FLIPR in presence or absence of compounds of formula (I). The fluorescence of the marker being sensitive to the amount of Ca^2+, the Ca^2+ movements can be detected. Then, the ability of compounds of formula (I) to antagonize the oxytocin-induced intracellular Ca^2+-mobilization mediated by the oxytocin receptor may be determined.
The activities of the pyrrolidine derivatives according to formula (I) were assessed using the above described in vitro biological assay. […]

Compound	IC50 [1]	IC50 (hOT receptor)
CO/N=C1\C[C@@H](C(=O)OC)N(C(=O)c2ccc(-c3ccccc3C)cc2)C1 [Methyl (2S,4E)-4-(methoxyimino)-1-[(2′-methyl[1,1′-biphenyl]-4-yl)carbonyl]-2-pyrrolidinecarboxylate]	36 nM	15 nM
CO/N=C1/C[C@@H](C(=O)OC)N(C(=O)c2ccc(-c3ccccc3C)cc2)C1 [Methyl (2S,4Z)-4-(methoxyimino)-1-[(2′-methyl[1,1′-biphenyl]-4-yl)carbonyl]-2-pyrrolidinecarboxylate]	12 nM	15 nM
